Measured values published in ChEMBL document CHEMBL1944619, “QSAR studies for prediction of cross-β sheet aggregate binding affinity and selectivity” (Bioorg Med Chem, 2012).

experiment: Displacement of thioflavin-T from amyloid beta (1 to 40) aggregates by thioflavin-T fluorescent dye assay

Row | IC50 | Structure (SMILES)
1 | 160 nM | CCCC[n+]1c(/C=C/c2ccc(N(C)C)cc2)sc2ccccc21
2 | 93 nM | CCCCCCC[n+]1c(/C=C/c2ccc(N(C)C)cc2)sc2ccccc21
3 | 110 nM | CN(C)c1ccc(/C=C/c2sc3ccccc3[n+]2Cc2ccccc2)cc1
4 | 170 nM | CN(C)c1ccc(/C=C/c2sc3ccc(F)cc3[n+]2Cc2ccccc2)cc1
5 | 130 nM | Cc1ccc2c(c1)sc(/C=C/c1ccc(N(C)C)cc1)[n+]2Cc1ccccc1
6 | 240 nM | CN(C)c1ccc(/C=C/c2sc3ccccc3[n+]2Cc2ccc(-c3ccccc3)cc2)cc1
7 | 200 nM | CN(C)c1ccc(/C=C/c2sc3ccccc3[n+]2CCCc2ccccc2)cc1
8 | 100 nM | CN(C)c1ccc(/C=C/c2sc3ccccc3[n+]2C/C=C/c2ccccc2)cc1
9 | 460 nM | CN(C)c1ccc(/C=C/c2sc3ccccc3[n+]2CCCC(c2ccccc2)c2ccccc2)cc1
10 | 140 nM | CN(C)c1ccc(/C=C/c2sc3ccccc3[n+]2CCCOCc2ccccc2)cc1
11 | 170 nM | CN(C)c1ccc(/C=C/c2sc3ccccc3[n+]2CCCCOc2ccccc2)cc1
12 | 170 nM | CN(C)c1ccc(/C=C/c2sc3ccccc3[n+]2CCCCCc2ccccc2)cc1
13 | 170 nM | CN(C)c1ccc(/C=C/c2sc3ccccc3[n+]2CCCCCOc2ccccc2)cc1
14 | 120 nM | CN(C)c1ccc(/C=C/c2sc3ccccc3[n+]2Cc2ccc3ccccc3c2)cc1

Continued, molecule first:

Row | Structure (SMILES) | IC50
15 | COc1ccc2nc(/N=N/c3ccc(N(C)C)cc3)sc2c1 | 3200 nM
16 | CN(C)c1ccc(/C=C/c2sc3ccc(F)cc3[n+]2C)cc1 | 1000 nM
17 | Cc1ccc2sc(/C=C/c3ccc(N(C)C)cc3)[n+](C)c2c1 | 400 nM
18 | Cc1ccc2c(c1)sc(/C=C/c1ccc(N(C)C)cc1)[n+]2C | 180 nM
19 | COc1ccc2c(c1)sc(/C=C/c1ccc(N(C)C)cc1)[n+]2C | 300 nM
20 | CN(C)c1ccc(/C=C/c2sc3cc([N+](=O)[O-])ccc3[n+]2C)cc1 | 1000 nM
21 | CN(C)c1ccc(/N=N/c2nc3ccccc3s2)cc1 | 22000 nM
22 | COc1ccc2c(c1)sc(/N=N/c1ccc(N(C)C)cc1)[n+]2C | 410 nM
23 | CN(C)c1ccc(/N=N/c2sc3ccccc3[n+]2C)cc1 | 1300 nM
24 | CCCCCCC[n+]1c(/C=C/c2ccc(N(C)C)cc2)sc2cc(OC)ccc21 | 140 nM
25 | CN(C)c1ccc(/C=C/c2sc3ccccc3[n+]2Cc2ccc(F)cc2)cc1 | 120 nM
26 | CN(C)c1ccc(/C=C/c2sc3ccccc3[n+]2Cc2ccccc2-c2ccccc2)cc1 | 100 nM
27 | CN(C)c1ccc(/C=C/c2sc3ccccc3[n+]2Cc2cccc(OC(=O)c3ccccc3)c2)cc1 | 230 nM
28 | CN(C)c1ccc(/C=C/c2sc3ccccc3[n+]2Cc2cccc(Oc3ccccc3)c2)cc1 | 120 nM
29 | CN(C)c1ccc(/C=C/c2sc3ccccc3[n+]2CCCC2CCCCC2)cc1 | 120 nM
30 | CCCCCCC[n+]1c(/C=C/c2ccc(N(CC)CC)cc2)sc2ccccc21 | 140 nM

Row | Structure (SMILES) | IC50
31 | CCCCCCC[n+]1c(/C=C/c2ccc(N(CCCC)CCCC)cc2)sc2ccccc21 | 600 nM
32 | CCCCCCC[n+]1c(/C=C/c2ccc(-n3cccc3)cc2)sc2ccccc21 | 160 nM
33 | CN(C)c1ccc(/C=C/c2sc3ccc(Cc4ccccc4)c(Cc4ccccc4)c3[n+]2C)cc1 | 210 nM
34 | CN(C)c1ccc(/C=C/c2nc3cc(Cl)ccc3s2)cc1 | > 100000 nM
35 | CN(C)c1ccc(/C=C/c2nc3ccc(N(C)C)cc3s2)cc1 | > 100000 nM
36 | CN(C)c1ccc(/C=C/c2sc3ccc(Cl)cc3[n+]2C)cc1 | 430 nM
37 | CN(C)c1ccc(/C=C/c2sc3cc(Cc4ccccc4)c(Cc4ccccc4)cc3[n+]2C)cc1 | 120 nM
38 | CN(C)c1ccc(/C=C/c2sc3c(Cc4ccccc4)c(Cc4ccccc4)ccc3[n+]2C)cc1 | 210 nM
39 | CCCCCCC[n+]1c(/C=C/c2ccc(N(C)C)c3ccccc23)sc2ccccc21 | 160 nM
40 | COc1ccc2c(c1)sc(/C=C/c1ccc(N(C)C)c3ccccc13)[n+]2C | 430 nM
41 | Nc1ccc(/N=N/c2nc3ccccc3s2)c2ccccc12 | 120 nM
42 | COc1ccc2nc(/N=N/c3ccc(N(C)C)c4ccccc34)sc2c1 | 2500 nM
43 | CN(C)c1ccc(/C=C/c2sc3ccccc3[n+]2C)cc1 | 1000 nM
44 | CC[n+]1c(/C=C/c2ccc(N(C)C)cc2)sc2ccccc21 | 400 nM
45 | CN(C)c1ccc(/C=C/c2nc3ccccc3s2)cc1 | > 100000 nM
